# From ChEMBL document CHEMBL1201862, “PubChem BioAssay data set” (2004)
# Active and inactive are the calls of the source.
# Tests used:
# [1] = molecular target: T1, RNA-binding protein pos-1 (Caenorhabditis elegans, UniProt G5EF15); assay: disruptors of C. elegans POS-1 RNA interaction – biochemical, fluorescence polarization, dose response (AID 1964);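 also: purified POS-1 fused to maltose binding protein made in E. coli; potency of compounds blocking POS-1 binding to fluorescent RNA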
# T1 sequence (G5EF15 whole entry): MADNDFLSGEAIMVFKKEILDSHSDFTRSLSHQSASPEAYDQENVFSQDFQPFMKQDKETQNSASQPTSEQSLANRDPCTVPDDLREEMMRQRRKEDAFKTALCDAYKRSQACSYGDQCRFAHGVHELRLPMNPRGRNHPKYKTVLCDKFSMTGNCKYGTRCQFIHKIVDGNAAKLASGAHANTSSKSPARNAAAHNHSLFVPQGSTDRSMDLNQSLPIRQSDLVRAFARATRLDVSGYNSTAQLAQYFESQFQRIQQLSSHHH
# [2] = molecular target: T2, Zinc finger protein mex-5 (Caenorhabditis elegans, UniProt Q9XUB2); assay: potency of MEX-5 RNA-binding blockers – biochemical, C. elegans, fluorescence polarization, dose response (AID 1960)
# T2 sequence (Q9XUB2 whole entry): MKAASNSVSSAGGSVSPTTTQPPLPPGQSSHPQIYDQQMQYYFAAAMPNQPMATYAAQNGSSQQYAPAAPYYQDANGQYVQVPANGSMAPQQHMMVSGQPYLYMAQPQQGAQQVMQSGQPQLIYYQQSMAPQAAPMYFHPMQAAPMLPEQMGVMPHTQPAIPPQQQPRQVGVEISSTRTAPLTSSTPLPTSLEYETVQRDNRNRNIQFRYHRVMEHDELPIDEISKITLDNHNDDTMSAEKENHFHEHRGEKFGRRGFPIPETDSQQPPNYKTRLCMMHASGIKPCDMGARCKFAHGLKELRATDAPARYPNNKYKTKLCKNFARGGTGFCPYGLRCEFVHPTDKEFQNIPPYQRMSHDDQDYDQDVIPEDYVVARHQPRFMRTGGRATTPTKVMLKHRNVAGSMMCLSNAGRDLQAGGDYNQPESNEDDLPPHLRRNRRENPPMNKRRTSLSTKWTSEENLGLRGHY
# Streptokinase A = molecular target: T3, Streptokinase A (Streptococcus pyogenes serotype M1, UniProt P10520); assay: viability-normalized secreted streptokinase activity reduction – plasminogen activation absorbance, OD405, dose response (AID 1914); assay type: functional, Streptococcus pyogenes M1 GAS;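 also: secreted streptokinase activity via plasminogen activation per viability signal from cell pellet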
# T3 sequence (P10520 whole entry): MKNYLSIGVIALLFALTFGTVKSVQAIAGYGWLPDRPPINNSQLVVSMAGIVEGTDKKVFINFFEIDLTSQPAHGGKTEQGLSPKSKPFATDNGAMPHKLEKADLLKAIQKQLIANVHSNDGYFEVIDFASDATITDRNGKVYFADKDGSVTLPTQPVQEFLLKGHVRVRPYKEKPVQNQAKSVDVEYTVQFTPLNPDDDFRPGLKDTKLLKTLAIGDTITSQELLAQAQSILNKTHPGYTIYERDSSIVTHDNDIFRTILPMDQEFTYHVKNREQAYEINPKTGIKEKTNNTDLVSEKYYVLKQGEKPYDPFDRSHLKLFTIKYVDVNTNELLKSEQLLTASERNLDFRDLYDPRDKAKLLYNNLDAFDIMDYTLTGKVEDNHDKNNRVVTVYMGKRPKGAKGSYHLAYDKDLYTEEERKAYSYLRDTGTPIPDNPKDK
# Streptococcus = assay: GAS UMAA2166 growth inhibition – luminescence, BacTiterGlo, counter-screen for streptokinase expression inhibitor project, dose response (AID 1915); assay type: functional, organism-based;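 also: potency for reduction of bacterial viability or growth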
# CHO = CHO cell viability loss, potency – luminescence, cytotoxicity control for TLR9-MyD88 binding inhibitor project, dose response (AID 588339); assay type: functional, cell-based, hamster; conditions: Cricetulus griseus;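 also: CHO cells stably coexpressing TLR9 and MyD88 fusions from primary screen; compound exposure lasted 48 hours before viability readout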
# Beta Lactamase = Beta Lactamase (Pseudomonas aeruginosa, UniProt Q932Y6); assay: BLA reporter interference, concentration series – BLA reporter cells, FRET fluorescence, artefact control for TLR9-MyD88 binding inhibitor project, dose response (AID 588341); assay type: cell-based;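 also: cell based assay in CHO-K1 cells stably expressing beta-lactamase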
# [3] = viability loss in HEK293T cells – cell-based, cherry-picks, cytotoxicity control for HIV Vif inhibitor project, dose response (AID 652208); assay type: functional
# [4] = molecular target: T4, Apoptotic protease-activating factor 1 (Homo sapiens, UniProt O14727); assay type: functional
# T4 sequence (O14727 whole entry): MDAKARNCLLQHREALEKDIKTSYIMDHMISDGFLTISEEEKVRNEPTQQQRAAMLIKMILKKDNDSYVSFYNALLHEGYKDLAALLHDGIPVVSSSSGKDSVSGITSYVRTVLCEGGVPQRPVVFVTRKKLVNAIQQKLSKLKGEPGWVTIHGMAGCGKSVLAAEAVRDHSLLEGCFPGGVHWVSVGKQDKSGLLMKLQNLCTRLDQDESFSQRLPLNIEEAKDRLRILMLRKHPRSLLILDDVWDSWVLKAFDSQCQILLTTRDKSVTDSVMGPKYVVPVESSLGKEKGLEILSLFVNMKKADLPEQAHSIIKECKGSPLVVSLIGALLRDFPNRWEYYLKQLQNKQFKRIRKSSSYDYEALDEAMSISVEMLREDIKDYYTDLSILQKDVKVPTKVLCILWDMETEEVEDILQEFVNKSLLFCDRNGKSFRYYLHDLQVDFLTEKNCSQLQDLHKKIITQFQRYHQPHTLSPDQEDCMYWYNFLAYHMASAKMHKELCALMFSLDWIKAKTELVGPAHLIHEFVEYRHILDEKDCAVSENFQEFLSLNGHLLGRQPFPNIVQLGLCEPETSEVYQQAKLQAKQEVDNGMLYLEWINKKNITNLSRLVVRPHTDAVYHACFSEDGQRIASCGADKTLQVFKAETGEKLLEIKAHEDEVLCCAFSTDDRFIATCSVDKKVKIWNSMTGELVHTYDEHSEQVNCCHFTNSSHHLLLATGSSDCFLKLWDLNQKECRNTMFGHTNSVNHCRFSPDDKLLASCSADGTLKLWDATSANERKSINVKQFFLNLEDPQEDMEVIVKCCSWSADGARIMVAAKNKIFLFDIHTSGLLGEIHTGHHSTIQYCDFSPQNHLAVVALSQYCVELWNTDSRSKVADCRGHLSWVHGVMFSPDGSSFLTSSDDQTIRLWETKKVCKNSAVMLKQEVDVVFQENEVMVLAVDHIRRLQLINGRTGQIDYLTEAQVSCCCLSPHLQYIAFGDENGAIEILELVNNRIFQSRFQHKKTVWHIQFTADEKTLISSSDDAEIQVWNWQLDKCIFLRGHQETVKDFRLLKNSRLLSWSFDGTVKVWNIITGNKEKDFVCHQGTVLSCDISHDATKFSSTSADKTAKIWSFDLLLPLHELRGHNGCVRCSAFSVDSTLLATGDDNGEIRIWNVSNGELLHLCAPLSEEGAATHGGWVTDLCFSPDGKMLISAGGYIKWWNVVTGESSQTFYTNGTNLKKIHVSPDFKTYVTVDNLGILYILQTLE
# H9c2 = assay: cells; assay type: functional, cell-based; conditions: Rattus norvegicus, H9c2, Myocardium;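 also: confirmatory concentration-response retest of ultra-high-throughput screening hits for modulation of myocardial damage; cell death induced by hydrogen peroxide oxidative stress; compound pretreatment for 60 min then peroxide exposure for 2 h; potency is for protecting the cells against peroxide damage rather than for killing them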
# [5] = molecular target: Ras and Rab interactor 1/Tyrosine-protein kinase ABL1 (Homo sapiens, UniProt P00519+Q13671); assay type: functional;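 also: biochemical TR-FRET dose-response test measuring inhibition of binding between Rin1 and Abl proteins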
# Large T antigen = Large T antigen (Simian virus 40, UniProt P03070); assay type: functional, Betapolyomavirus macacae;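 also: Confirmatory-stage PubChem screen for compounds that inhibit SV40 T antigen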
# [6] = molecular target: FAD-linked sulfhydryl oxidase ALR (Homo sapiens, UniProt P55789); assay: ALR-catalysed DTT oxidation blockers – biochemical, H2O2 detection, luminescence, cherry-pick, dose response (AID 493248)
# Genome polyprotein = Genome polyprotein (dengue virus type 2, UniProt P29990); assay: flavivirus cap methylation enzyme inhibition – biochemical, confirmation dose response, primary screen (AID 588689); assay type: functional
# [7] = molecular target: T5, Carboxy-terminal domain RNA polymerase II polypeptide A small phosphatase 1 (Homo sapiens, UniProt Q9GZU7); assay: CTDSP1 inhibitors, concentration-response, biochemical, absorbance readout, ultra-high-throughput screen actives (AID 540297); assay type: functional
# T5 sequence (Q9GZU7 whole entry): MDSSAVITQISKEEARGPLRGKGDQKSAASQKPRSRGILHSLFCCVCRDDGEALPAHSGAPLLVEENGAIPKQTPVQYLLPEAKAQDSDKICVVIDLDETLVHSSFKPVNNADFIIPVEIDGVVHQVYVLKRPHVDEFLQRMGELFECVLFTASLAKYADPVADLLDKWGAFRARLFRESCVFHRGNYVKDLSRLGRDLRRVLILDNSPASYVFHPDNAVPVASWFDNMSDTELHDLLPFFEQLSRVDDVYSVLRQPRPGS
# [8] = molecular target: DNA (cytosine-5)-methyltransferase 1 (Homo sapiens, UniProt P26358); assay: inhibition of DNA methylation by DNMT1 – biochemical, fluorescent molecular beacon, confirmation (AID 602386); assay type: functional
# Coagulation factor XII = molecular target: T6, Coagulation factor XII (Homo sapiens, UniProt P00748); assay type: functional;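 also: activated factor XIIa alpha cleaving a fluorogenic AMC peptide substrate; inhibitor potency from loss of enzyme activity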
# T6 sequence (P00748 whole entry): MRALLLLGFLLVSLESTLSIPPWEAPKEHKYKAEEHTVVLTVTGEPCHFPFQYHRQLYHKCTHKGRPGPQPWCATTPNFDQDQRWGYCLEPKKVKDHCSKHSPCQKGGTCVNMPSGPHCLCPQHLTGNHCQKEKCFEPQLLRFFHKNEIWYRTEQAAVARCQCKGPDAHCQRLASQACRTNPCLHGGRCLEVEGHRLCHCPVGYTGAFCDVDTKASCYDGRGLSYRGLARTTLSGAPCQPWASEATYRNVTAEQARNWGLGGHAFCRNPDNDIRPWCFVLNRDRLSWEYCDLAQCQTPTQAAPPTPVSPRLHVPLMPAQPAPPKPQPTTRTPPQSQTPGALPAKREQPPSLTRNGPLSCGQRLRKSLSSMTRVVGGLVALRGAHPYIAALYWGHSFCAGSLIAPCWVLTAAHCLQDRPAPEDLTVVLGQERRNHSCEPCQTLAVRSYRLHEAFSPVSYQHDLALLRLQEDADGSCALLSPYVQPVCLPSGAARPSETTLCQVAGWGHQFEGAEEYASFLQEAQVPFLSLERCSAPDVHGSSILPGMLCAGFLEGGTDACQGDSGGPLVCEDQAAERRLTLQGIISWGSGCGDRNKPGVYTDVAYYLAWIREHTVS
# Melanocortin receptor 4 = Melanocortin receptor 4 (Homo sapiens, UniProt P32245); assay: inhibitors of MC4R cAMP signaling – cell-based, TR-FRET, biased antagonists, dose response (AID 602298); assay type: functional;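 also: antagonist potency against agonist-stimulated cAMP production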
# [9] = cAMP pathway inhibition in counterscreen cell line – TR-FRET cAMP detection, counter-screen for MC4R biased antagonist project, dose response (AID 602305); assay type: functional, cell-based;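 also: U2OS cells stimulated with forskolin near its EC80 as the cAMP inducer; potency is for inhibition of forskolin-stimulated cAMP signaling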
# Sequence of Melanocortin receptor 4 (P32245 whole entry): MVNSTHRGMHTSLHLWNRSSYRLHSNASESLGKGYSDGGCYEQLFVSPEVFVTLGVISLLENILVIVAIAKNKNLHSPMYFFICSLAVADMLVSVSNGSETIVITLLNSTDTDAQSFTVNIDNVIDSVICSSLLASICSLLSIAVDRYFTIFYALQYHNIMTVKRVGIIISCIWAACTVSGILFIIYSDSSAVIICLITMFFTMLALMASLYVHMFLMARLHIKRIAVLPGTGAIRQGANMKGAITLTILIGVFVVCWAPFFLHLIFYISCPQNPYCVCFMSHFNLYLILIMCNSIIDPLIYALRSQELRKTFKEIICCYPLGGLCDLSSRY
# Sequence of Genome polyprotein (P29990 2492-3391 limits assumed): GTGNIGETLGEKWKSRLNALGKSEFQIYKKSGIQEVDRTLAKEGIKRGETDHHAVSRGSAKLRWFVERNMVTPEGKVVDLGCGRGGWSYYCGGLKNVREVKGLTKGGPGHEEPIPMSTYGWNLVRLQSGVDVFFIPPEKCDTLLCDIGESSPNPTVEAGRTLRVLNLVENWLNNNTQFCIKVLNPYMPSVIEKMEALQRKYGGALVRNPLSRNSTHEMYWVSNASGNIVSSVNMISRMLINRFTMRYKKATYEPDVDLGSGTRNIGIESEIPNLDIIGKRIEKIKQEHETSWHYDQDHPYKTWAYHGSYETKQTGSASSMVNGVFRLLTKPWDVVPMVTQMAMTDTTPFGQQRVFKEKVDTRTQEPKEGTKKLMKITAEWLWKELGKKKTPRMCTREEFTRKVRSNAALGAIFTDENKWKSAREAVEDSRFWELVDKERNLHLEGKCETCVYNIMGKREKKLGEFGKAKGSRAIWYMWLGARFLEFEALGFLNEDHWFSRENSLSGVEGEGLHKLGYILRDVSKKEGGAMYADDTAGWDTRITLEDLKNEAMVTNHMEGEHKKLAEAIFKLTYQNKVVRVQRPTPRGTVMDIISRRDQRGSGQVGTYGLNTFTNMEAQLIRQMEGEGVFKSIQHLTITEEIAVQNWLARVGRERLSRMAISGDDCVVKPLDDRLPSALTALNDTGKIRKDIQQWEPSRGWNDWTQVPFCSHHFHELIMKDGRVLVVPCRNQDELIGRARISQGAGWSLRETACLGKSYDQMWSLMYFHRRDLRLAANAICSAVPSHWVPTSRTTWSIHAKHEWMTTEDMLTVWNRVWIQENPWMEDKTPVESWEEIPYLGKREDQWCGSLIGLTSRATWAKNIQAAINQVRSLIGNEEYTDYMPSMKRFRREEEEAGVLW
# Sequence of DNA (cytosine-5)-methyltransferase 1 (P26358 whole entry): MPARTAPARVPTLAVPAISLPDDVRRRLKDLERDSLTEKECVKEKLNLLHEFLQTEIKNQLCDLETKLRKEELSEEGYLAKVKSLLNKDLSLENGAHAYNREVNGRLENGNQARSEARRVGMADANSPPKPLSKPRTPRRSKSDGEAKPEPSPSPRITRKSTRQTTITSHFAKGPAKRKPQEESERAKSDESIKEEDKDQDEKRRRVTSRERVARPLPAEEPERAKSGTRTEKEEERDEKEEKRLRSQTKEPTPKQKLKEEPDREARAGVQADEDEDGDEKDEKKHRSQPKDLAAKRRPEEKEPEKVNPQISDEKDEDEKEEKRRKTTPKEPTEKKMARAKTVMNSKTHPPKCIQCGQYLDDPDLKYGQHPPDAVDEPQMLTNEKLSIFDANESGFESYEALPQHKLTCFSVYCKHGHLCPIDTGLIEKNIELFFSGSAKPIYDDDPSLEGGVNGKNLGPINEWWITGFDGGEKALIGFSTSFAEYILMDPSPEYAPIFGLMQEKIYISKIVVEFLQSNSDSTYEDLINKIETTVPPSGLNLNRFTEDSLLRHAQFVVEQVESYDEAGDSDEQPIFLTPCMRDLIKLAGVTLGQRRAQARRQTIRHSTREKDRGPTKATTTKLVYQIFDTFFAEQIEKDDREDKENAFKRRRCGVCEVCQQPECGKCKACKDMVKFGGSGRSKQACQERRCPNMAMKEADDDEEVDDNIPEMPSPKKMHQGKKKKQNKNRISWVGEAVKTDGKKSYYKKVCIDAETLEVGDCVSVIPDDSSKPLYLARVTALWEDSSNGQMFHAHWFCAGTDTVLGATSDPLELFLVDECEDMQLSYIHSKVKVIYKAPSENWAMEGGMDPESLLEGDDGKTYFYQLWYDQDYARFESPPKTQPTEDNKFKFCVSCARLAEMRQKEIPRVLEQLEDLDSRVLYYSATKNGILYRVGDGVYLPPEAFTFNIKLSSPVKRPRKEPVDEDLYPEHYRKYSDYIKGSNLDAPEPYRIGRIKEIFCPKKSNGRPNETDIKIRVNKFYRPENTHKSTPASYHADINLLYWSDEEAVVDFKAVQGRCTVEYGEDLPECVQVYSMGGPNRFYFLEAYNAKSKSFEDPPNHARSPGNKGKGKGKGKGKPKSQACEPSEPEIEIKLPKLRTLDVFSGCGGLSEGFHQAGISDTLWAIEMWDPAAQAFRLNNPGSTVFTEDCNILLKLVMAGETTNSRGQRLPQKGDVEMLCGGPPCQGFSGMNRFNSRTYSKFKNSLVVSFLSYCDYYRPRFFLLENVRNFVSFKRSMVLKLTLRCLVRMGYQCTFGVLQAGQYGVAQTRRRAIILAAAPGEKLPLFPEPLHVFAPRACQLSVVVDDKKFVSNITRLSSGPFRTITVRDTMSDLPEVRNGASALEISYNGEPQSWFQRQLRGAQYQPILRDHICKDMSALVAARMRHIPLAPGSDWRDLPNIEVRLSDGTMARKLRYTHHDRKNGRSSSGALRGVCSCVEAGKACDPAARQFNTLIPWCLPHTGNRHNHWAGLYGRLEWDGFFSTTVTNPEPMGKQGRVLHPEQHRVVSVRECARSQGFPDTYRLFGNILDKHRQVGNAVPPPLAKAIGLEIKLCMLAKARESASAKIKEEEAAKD
# Sequence of Beta Lactamase (Q932Y6 whole entry): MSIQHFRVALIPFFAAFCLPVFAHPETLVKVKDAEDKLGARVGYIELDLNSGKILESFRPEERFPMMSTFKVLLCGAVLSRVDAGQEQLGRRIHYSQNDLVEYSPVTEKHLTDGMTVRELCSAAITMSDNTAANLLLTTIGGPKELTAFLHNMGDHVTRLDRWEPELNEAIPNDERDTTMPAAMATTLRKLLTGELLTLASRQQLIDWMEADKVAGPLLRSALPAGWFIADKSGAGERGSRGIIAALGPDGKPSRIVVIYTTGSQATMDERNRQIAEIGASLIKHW
# Sequence of Large T antigen (P03070 whole entry): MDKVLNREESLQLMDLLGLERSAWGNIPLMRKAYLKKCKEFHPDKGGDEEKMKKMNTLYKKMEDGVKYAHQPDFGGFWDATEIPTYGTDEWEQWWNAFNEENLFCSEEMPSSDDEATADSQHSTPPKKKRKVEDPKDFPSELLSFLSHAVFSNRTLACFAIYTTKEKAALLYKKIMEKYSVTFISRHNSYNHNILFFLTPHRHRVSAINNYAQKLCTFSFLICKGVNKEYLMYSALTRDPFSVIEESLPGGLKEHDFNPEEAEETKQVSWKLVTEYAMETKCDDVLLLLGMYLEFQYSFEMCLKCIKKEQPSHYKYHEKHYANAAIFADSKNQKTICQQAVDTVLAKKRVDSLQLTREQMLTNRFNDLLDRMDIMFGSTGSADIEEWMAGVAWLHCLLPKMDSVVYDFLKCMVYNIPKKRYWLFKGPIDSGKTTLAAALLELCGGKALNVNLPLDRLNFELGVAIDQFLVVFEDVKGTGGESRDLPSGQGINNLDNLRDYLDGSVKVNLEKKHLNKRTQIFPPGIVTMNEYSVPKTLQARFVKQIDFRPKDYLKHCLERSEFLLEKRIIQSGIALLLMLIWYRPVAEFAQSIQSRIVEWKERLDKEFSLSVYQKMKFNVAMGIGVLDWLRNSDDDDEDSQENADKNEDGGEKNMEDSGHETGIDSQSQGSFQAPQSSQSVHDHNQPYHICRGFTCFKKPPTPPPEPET
# Sequence of FAD-linked sulfhydryl oxidase ALR (P55789 whole entry): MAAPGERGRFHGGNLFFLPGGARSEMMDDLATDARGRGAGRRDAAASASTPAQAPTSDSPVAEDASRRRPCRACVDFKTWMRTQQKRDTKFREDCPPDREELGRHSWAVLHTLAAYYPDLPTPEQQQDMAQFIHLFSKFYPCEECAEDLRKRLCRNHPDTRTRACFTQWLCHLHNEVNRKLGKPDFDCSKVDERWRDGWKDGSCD
structure (smiles),measurement,setting,value
Nc1c(C(=O)Nc2nc3ccccc3s2)sc2nc(-c3cccs3)ccc12,EC50,[1],19.2 µM (inconclusive)
same,EC50,[2],> 150 µM (inconclusive)
same,EC50,Streptokinase A,> 150 µM (not active)
same,EC50,Streptococcus,109 µM (active)
same,IC50,CHO,5.51 µM (active)
same,IC50,Beta Lactamase,3.93 µM (active)
same,AC50,[3],7.27 µM (active)
Cc1ccc(-c2nn3c(-c4ccco4)nnc3c3ccccc23)cc1S(=O)(=O)NCC1CCCO1 (stereo not drawn),IC50,[4],5.73 µM (active)
same,IC50,H9c2,> 79 µM (inactive)
same,IC50,[5],> 73.5 µM (inactive)
O=C1NN(c2ccccc2)C(=O)/C1=C/c1ccc(-c2ccc(C(=O)O)cc2)o1,IC50,Large T antigen,20.6 µM (active)
same,AC50,[6],0.11 µM (active)
same,IC50,Genome polyprotein,> 100 µM (active)
same,IC50,[7],4.57 µM (active)
same,IC50,[8],10.2 µM (active)
COc1ccc(CCn2c(C)cc(C(=O)CCl)c2C)cc1OC,IC50,Coagulation factor XII,> 50 µM (inactive)
same,IC50,Melanocortin receptor 4,> 64.6 µM (inactive)
same,IC50,[9],> 64.6 µM (inactive)
